# Reference: US20230099344A1, “COMPOUNDS AND METHODS FOR THE TARGETED DEGRADATION OF IRAK-4” (Arvinas Operations, Inc., priority 2021, published 2023)
# Molecular target: T1, IRAK-4 (Homo sapiens, UniProt Q9NWZ3)
# T1 sequence (Q9NWZ3 1-460): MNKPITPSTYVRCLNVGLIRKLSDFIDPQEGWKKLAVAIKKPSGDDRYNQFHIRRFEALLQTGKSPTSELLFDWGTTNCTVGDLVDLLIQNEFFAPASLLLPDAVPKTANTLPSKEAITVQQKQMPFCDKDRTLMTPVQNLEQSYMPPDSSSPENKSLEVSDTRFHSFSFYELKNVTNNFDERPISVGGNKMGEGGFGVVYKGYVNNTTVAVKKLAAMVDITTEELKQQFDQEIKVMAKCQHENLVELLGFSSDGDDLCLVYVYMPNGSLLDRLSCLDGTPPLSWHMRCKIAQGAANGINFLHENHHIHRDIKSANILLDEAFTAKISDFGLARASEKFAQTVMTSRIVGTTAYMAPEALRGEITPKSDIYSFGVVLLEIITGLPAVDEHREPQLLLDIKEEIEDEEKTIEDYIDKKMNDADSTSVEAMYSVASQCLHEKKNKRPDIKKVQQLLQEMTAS
# Assay: IRAK-4 ELISA, PBMC degradation
# Type: cell-based
# Set-up: endogenous in cells; host or cells: PBMC
# Settings: treated overnight
# Outline: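 OCI-Ly10 cells (seeded at 1×10^6/ml) or human PBMC (seeded at 2×10^6/ml) were treated with compound on the day of seeding and incubated overnight. Lysates were then assayed for remaining IRAK-4 protein by sandwich ELISA with a matched antibody pair.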
DC50 [nM],Dmax [%],PBMC DC90,PBMC Dmax,Structure (SMILES)
< 1,80 to 90,A (A represents a DC90 value <10.0 nM),–,CN(CC1CCN(c2ccc3c(c2)C(=O)N(C2CCC(=O)NC2=O)C3=O)CC1)[C@H]1CC[C@H](n2cc3cc(NC(=O)c4cnn5cccnc45)c(OCC4CC4)cc3n2)CC1 (stereo partly drawn) [Example 349]
< 1,70 to 80,D (D represents a DC90 value ≥50 nM),–,CN(C1CCC(n2cc3cc(NC(=O)c4cnn5cccnc45)c(OCC4CC4)cc3n2)CC1)C1CCN(c2ccc3c(c2)C(=O)N(C2CCC(=O)NC2=O)C3)CC1 (stereo not drawn) [Example 354]
1 to 5,80 to 90,D (D represents a DC90 value ≥50 nM),–,CN(C1CCC(n2cc3cc(NC(=O)c4cnn5cccnc45)c(OCC4CC4)cc3n2)CC1)C1CN(c2ccc3c(c2)C(=O)N(C2CCC(=O)NC2=O)C3)C1 (stereo not drawn) [Example 355]
< 1,≥ 90,A (A represents a DC90 value <10.0 nM),–,Cn1c(=O)n(C2CCC(=O)NC2=O)c2cccc(N3CC(CN4CCC(n5cc6cc(NC(=O)c7cnn8cccnc78)c(C7CC7)cc6n5)CC4)C3)c21 (stereo not drawn) [Example 383]
< 1,≥ 90,A (A represents a DC90 value <10.0 nM),–,CC(C)Oc1cc2nn(C3CCN(CC4(F)CN(c5cccc6c5n(C)c(=O)n6C5CCC(=O)NC5=O)C4)CC3)cc2cc1NC(=O)c1cnn2cccnc12 (stereo not drawn) [Example 386]
< 1,≥ 90,A (A represents a DC90 value <10.0 nM),–,"Cn1c(=O)n(C2CCC(=O)NC2=O)c2cccc(N3CCC(CN4CCC(n5cc6cc(NC(=O)c7cnn8cccnc78)c(OCC7CC7)cc6n5)CC4)CC3)c21 (stereo not drawn) [Example 390, N-(6-(cyclopropylmethoxy)-2-(1-((1-(1-(2,6-dioxopiperidin-3-yl)-3-methyl-2-oxo-2,3-dihydro-1H-benzo[d]imidazol-4-yl)piperidin-4-yl)methyl)piperidin-4-yl)-2H-indazol-5-yl)pyrazolo[1,5-a]pyrimidine-3-carboxamide]"
≥ 10,80 to 90,D (D represents a DC90 value ≥50 nM),–,"O=C1CCC(N2Cc3cc(N4CC(N5CCC(N6Cc7cc(NC(=O)c8cnn9cccnc89)c(N8CCOCC8)nc7C6=O)CC5)C4)ccc3C2=O)C(=O)N1 (stereo not drawn) [Example 404, N-[6-[1-[1-[2-(2,6-dioxo-3-piperidyl)-1-oxo-isoindolin-5-yl]azetidin-3-yl]-4-piperidyl]-2-morpholino-7-oxo-5H-pyrrolo[3,4-b]pyridin-3-yl]pyrazolo[1,5-a]pyrimidine-3-carboxamide]"

# Continued, compound first:
Structure (SMILES),DC50 [nM],Dmax [%],PBMC DC90,PBMC Dmax
CC(C)Oc1cc2nn([C@H]3CC[C@H](N(C)CC4(F)CN(c5ccc6c(c5)C(=O)N(C5CCC(=O)NC5=O)C6=O)C4)CC3)cc2cc1NC(=O)c1cnn2cccnc12 (stereo partly drawn) [Example 347],1 to 5,80 to 90,B (B represents a DC90 value ≥10.0 nM and <25.0 nM),–
CC(C)Oc1cc2nn([C@H]3CC[C@H](NCC4(F)CN(c5ccc6c(c5)C(=O)N(C5CCC(=O)NC5=O)C6=O)C4)CC3)cc2cc1NC(=O)c1cnn2cccnc12 (stereo partly drawn) [Example 348],< 1,≥ 90,A (A represents a DC90 value <10.0 nM),–
CN(CC1(F)CN(c2ccc3c(c2)C(=O)N(C2CCC(=O)NC2=O)C3=O)C1)[C@H]1CC[C@H](n2cc3cc(NC(=O)c4cnn5cccnc45)c(OCC4CC4)cc3n2)CC1 (stereo partly drawn) [Example 350],1 to 5,70 to 80,B (B represents a DC90 value ≥10.0 nM and <25.0 nM),–
O=C1CCC(N2C(=O)c3ccc(N4CC(F)(CN[C@H]5CC[C@H](n6cc7cc(NC(=O)c8cnn9cccnc89)c(OCC8CC8)cc7n6)CC5)C4)cc3C2=O)C(=O)N1 (stereo partly drawn) [Example 351],< 1,80 to 90,A (A represents a DC90 value <10.0 nM),–
CN(CC1(F)CCN(c2ccc3c(c2)C(=O)N(C2CCC(=O)NC2=O)C3=O)CC1)[C@H]1CC[C@H](n2cc3cc(NC(=O)c4cnn5cccnc45)c(OCC4CC4)cc3n2)CC1 (stereo partly drawn) [Example 352],1 to 5,80 to 90,B (B represents a DC90 value ≥10.0 nM and <25.0 nM),–
CN(CC1(C)CCN(c2ccc3c(c2)C(=O)N(C2CCC(=O)NC2=O)C3=O)CC1)C1CCC(n2cc3cc(NC(=O)c4cnn5cccnc45)c(OCC4CC4)cc3n2)CC1 (stereo not drawn) [Example 356],1 to 5,≥ 90,A (A represents a DC90 value <10.0 nM),–
"CCN(C1CCN(c2ccc3c(c2)C(=O)N([C@@H]2CCC(=O)NC2=O)C3=O)CC1)[C@H]1C[C@H](n2cc3cc(NC(=O)c4cnn5cccnc45)c(OC(C)C)cc3n2)C1 [Example 377, N-(2-((1r,3r)-3-((1-(2-(2,6-dioxopiperidin-3-yl)-1,3-dioxoisoindolin-5-yl)piperidin-4-yl)(ethyl)amino)cyclobutyl)-6-isopropoxy-2H-indazol-5-yl)pyrazolo[1,5-a]pyrimidine-3-carboxamide]",1 to 5,–,B (B represents a DC90 value ≥10.0 nM and <25.0 nM),A (A represents a Dmax value ≥90)
CC(C)Oc1cc2c(cc1NC(=O)c1cnn3cccnc13)CN(C1CCN(CC3(F)CN(c4cccc5c4n(C)c(=O)n5C4CCC(=O)NC4=O)C3)CC1)C2=O (stereo not drawn) [Example 385],< 1,≥ 90,A (A represents a DC90 value <10.0 nM),–
Cn1c(=O)n(C2CCC(=O)NC2=O)c2cccc(N3CC(F)(CN4CCC(n5cc6cc(NC(=O)c7cnn8cccnc78)c(OCC7CC7)cc6n5)CC4)C3)c21 (stereo not drawn) [Example 387],< 1,≥ 90,A (A represents a DC90 value <10.0 nM),–
CCN(C1CN(c2cccc3c2n(C)c(=O)n3C2CCC(=O)NC2=O)C1)[C@H]1CC[C@H](n2cc3cc(NC(=O)c4cnn5cccnc45)c(OC(C)C)cc3n2)CC1 (stereo partly drawn) [Example 388],< 1,≥ 90,A (A represents a DC90 value <10.0 nM),–
"COc1cc(N2CC(CN3CCC(N4Cc5cc(NC(=O)c6cnn7cccnc67)c(OC(C)C)nc5C4=O)CC3)C2)cc2c1C(=O)N(C1CCC(=O)NC1=O)C2=O (stereo not drawn) [Example 397, N-(6-(1-((1-(2-(2,6-dioxopiperidin-3-yl)-7-methoxy-1,3-dioxoisoindolin-5-yl)azetidin-3-yl)methyl)piperidin-4-yl)-2-isopropoxy-7-oxo-6,7-dihydro-5H-pyrrolo[3,4-b]ipyridin-3-yl)pyrazolo [1,5-a]pyrimidine-3-carboxamide]",< 1,–,A (A represents a DC90 value <10.0 nM),A (A represents a Dmax value ≥90)
CC(C)Oc1nc2c(cc1NC(=O)c1cnn3cccnc13)CN(C1CCN(CCc3ccc4c(c3)CN(C3CCC(=O)NC3=O)C4=O)CC1)C2=O (stereo not drawn) [Example 399],1 to 5,≥ 90,B (B represents a DC90 value ≥10.0 nM and <25.0 nM),–
CC(C)Oc1nc2c(cc1NC(=O)c1cnn3cccnc13)CN(C1CCN(CC3CN(c4ccc5c(c4)CN(C4CCC(=O)NC4=O)C5=O)C3)CC1)C2=O (stereo not drawn) [Example 401],1 to 5,≥ 90,B (B represents a DC90 value ≥10.0 nM and <25.0 nM),–
COc1cc(N2CC(CN3CCC(N4Cc5cc(NC(=O)c6cnn7cccnc67)c(OC(C)C)nc5C4=O)CC3)C2)cc2c1C(=O)N(C1CCC(=O)NC1=O)C2 (stereo not drawn) [Example 403],1 to 5,≥ 90,C (C represents a DC90 value ≥25.0 nM and <50 nM),–
O=C1CCC(N2C(=O)c3ccc(N4CC(N5CCC(N6Cc7cc(NC(=O)c8cnn9cccnc89)c(N8CCOCC8)nc7C6=O)CC5)C4)cc3C2=O)C(=O)N1 (stereo not drawn) [Example 407],< 1,≥ 90,A (A represents a DC90 value <10.0 nM),–
"O=C1CCC(N2C(=O)c3ccc(N4CC(F)(CN5CCC(n6cc7cc(NC(=O)c8cnn9cccnc89)c(C(F)F)cc7n6)CC5)C4)cc3C2=O)C(=O)N1 (stereo not drawn) [Example 408, N-[6-(difluoromethyl)-2-[1-[[1-[2-(2,6-dioxo-3-piperidyl)-1,3-dioxo-isoindolin-5-yl]-3-fluoro-azetidin-3-yl]methyl]-4-piperidyl]indazol-5-yl]pyrazolo[1,5-a]pyrimidine-3-carboxamide]",< 1,≥ 90,A (A represents a DC90 value <10.0 nM),–
O=C1CCC(N2C(=O)c3ccc(N4CC(F)(CN5CCC(n6cc7cc(NC(=O)c8cnn9ccc(N%10CCOCC%10)nc89)c(C(F)F)cc7n6)CC5)C4)cc3C2=O)C(=O)N1 (stereo not drawn) [Example 409],1 to 5,≥ 90,B (B represents a DC90 value ≥10.0 nM and <25.0 nM),–
O=C1CCC(N2C(=O)c3ccc(N4CC(F)(CN5CCC(n6cc7cc(NC(=O)c8cnn9ccc(N%10C[C@H]%11C[C@@H]%10CO%11)nc89)c(C(F)F)cc7n6)CC5)C4)cc3C2=O)C(=O)N1 (stereo partly drawn) [Example 410],5 to 10,80 to 90,D (D represents a DC90 value ≥50 nM),–
"CC(C)Oc1cc2nn(C3CCN(CC4(F)CN(c5ccc6c(n5)C(=O)N(C5CCC(=O)NC5=O)C6=O)C4)CC3)cc2cc1NC(=O)c1cnn2cccnc12 (stereo not drawn) [Example 411, N-(2-(1-((1-(6-(2,6-dioxopiperidin-3-yl)-5,7-dioxo-6,7-dihydro-5H-pyrrolo[3,4-b]pyridin-2-yl)-3-fluoroazetidin-3-yl)methyl)piperidin-4-yl)-6-isopropoxy-2H-indazol-5-yl)pyrazolo[1,5-a]pyrimidine-3-carboxamide]",5 to 10,80 to 90,D (D represents a DC90 value ≥50 nM),–
